Test results: the supplement of paper PMC10307832

How the values were obtained:
Assay in all cases: relative viability (nuclei count vs DMSO), 5 days (fraction); higher = more cells survive
201T = tested on: 201T
Summary of the method: (§1)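 Relative viability equals treated-well nuclei counts divided by vehicle-well nuclei counts. Counts came from 4× images of lung cancer cell lines grown in 1536-well plates for 5 days after pin-tool dosing on the day after seeding. Dosing used one drug alone or a fixed anchor-drug dose plus five library-drug doses (not always all listed) in √10 steps, and values are medians of duplicate plates.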

BEN = tested on: BEN
Summary of the method: as §1

CAL-12T = tested on: CAL-12T
Summary of the method: as §1

H3255 = tested on: H3255
Summary of the method: as §1

HARA = tested on: HARA
Summary of the method: as §1

HCC-15 = tested on: HCC-15
Summary of the method: as §1

HCC-827 = tested on: HCC-827
Summary of the method: as §1

LC-2-ad = tested on: LC-2-ad
Summary of the method: as §1

LCLC-103H = tested on: LCLC-103H
Summary of the method: as §1

LK-2 = tested on: LK-2
Summary of the method: as §1

LU99A = tested on: LU99A
Summary of the method: as §1

LXF-289 = tested on: LXF-289
Summary of the method: as §1

NCI-H1437 = tested on: NCI-H1437
Summary of the method: as §1

NCI-H1651 = tested on: NCI-H1651
Summary of the method: as §1

NCI-H1792 = tested on: NCI-H1792
Summary of the method: as §1

NCI-H2085 = tested on: NCI-H2085
Summary of the method: as §1

NCI-H23 = tested on: NCI-H23
Summary of the method: as §1

NCI-H2405 = tested on: NCI-H2405
Summary of the method: as §1

NCI-H322M = tested on: NCI-H322M
Summary of the method: as §1

RERF-LC-KJ = tested on: RERF-LC-KJ
Summary of the method: as §1

O=C(O)CCCCC(CCSCc1ccccc1)SCc1ccccc1 (stereo not given) [CPI-613] + NC(=O)Nc1cc(-c2cccc(F)c2)sc1C(=O)N[C@H]1CCCNC1 [AZD7762] (partner 0.2 µM)
relative viability (201T; first compound 5 µM): 0.581
relative viability (201T; first compound 15.81 µM): 0.62
relative viability (201T; first compound 50 µM): 0.66
relative viability (201T; first compound 158.11 µM): 0.318
relative viability (201T; first compound 500 µM): 0.564
relative viability (BEN; first compound 5 µM): 0.653
relative viability (BEN; first compound 15.81 µM): 0.485
relative viability (BEN; first compound 50 µM): 0.697
relative viability (BEN; first compound 158.11 µM): 0.672
relative viability (BEN; first compound 500 µM): 0.526
relative viability (CAL-12T; first compound 5 µM): 0.624
relative viability (CAL-12T; first compound 15.81 µM): 0.457
relative viability (CAL-12T; first compound 50 µM): 0.509
relative viability (CAL-12T; first compound 158.11 µM): 0.541
relative viability (CAL-12T; first compound 500 µM): 0.469
relative viability (H3255; first compound 5 µM): 0.816
relative viability (H3255; first compound 15.81 µM): 0.847
relative viability (H3255; first compound 50 µM): 0.833
relative viability (H3255; first compound 158.11 µM): 0.733
relative viability (H3255; first compound 500 µM): 0.853
relative viability (HARA; first compound 5 µM): 0.37
relative viability (HARA; first compound 15.81 µM): 0.0178
relative viability (HARA; first compound 50 µM): 0.302
relative viability (HARA; first compound 158.11 µM): 0.204
relative viability (HARA; first compound 500 µM): 0.041
relative viability (HCC-15; first compound 5 µM): 1.21
relative viability (HCC-15; first compound 15.81 µM): 1.04
relative viability (HCC-15; first compound 50 µM): 1.14
relative viability (HCC-15; first compound 158.11 µM): 0.819
relative viability (HCC-15; first compound 500 µM): 0.476
relative viability (HCC-827; first compound 5 µM): 0.217
relative viability (HCC-827; first compound 15.81 µM): 0.181
relative viability (HCC-827; first compound 50 µM): 0.201
relative viability (HCC-827; first compound 158.11 µM): 0.179
relative viability (HCC-827; first compound 500 µM): 0.127
relative viability (LC-2-ad; first compound 5 µM): 0.771
relative viability (LC-2-ad; first compound 15.81 µM): 0.813
relative viability (LC-2-ad; first compound 50 µM): 0.825
relative viability (LC-2-ad; first compound 158.11 µM): 0.283
relative viability (LC-2-ad; first compound 500 µM): 0.01
relative viability (LCLC-103H; first compound 5 µM): 0.738
relative viability (LCLC-103H; first compound 15.81 µM): 0.764
relative viability (LCLC-103H; first compound 50 µM): 0.755
relative viability (LCLC-103H; first compound 158.11 µM): 0.65
relative viability (LCLC-103H; first compound 500 µM): 0.501
relative viability (LK-2; first compound 5 µM): 0.408
relative viability (LK-2; first compound 15.81 µM): 0.359
relative viability (LK-2; first compound 50 µM): 0.343
relative viability (LK-2; first compound 158.11 µM): 0.355
relative viability (LK-2; first compound 500 µM): 0.289
relative viability (LU99A; first compound 5 µM): 0.338
relative viability (LU99A; first compound 15.81 µM): 0.326
relative viability (LU99A; first compound 50 µM): 0.322
relative viability (LU99A; first compound 158.11 µM): 0.335
relative viability (LU99A; first compound 500 µM): 0.0775
relative viability (LXF-289; first compound 5 µM): 1
relative viability (LXF-289; first compound 15.81 µM): 1
relative viability (LXF-289; first compound 50 µM): 1.03
relative viability (LXF-289; first compound 158.11 µM): 0.722
relative viability (LXF-289; first compound 500 µM): 0.774
relative viability (NCI-H1437; first compound 5 µM): 1.11
relative viability (NCI-H1437; first compound 15.81 µM): 1.13
relative viability (NCI-H1437; first compound 50 µM): 1.08
relative viability (NCI-H1437; first compound 158.11 µM): 0.604
relative viability (NCI-H1437; first compound 500 µM): 0.855
relative viability (NCI-H1651; first compound 5 µM): 0.484
relative viability (NCI-H1651; first compound 15.81 µM): 0.421
relative viability (NCI-H1651; first compound 50 µM): 0.421
relative viability (NCI-H1651; first compound 158.11 µM): 0.317
relative viability (NCI-H1651; first compound 500 µM): 0.45
relative viability (NCI-H1792; first compound 5 µM): 0.691
relative viability (NCI-H1792; first compound 15.81 µM): 0.616
relative viability (NCI-H1792; first compound 50 µM): 0.57
relative viability (NCI-H1792; first compound 158.11 µM): 0.135
relative viability (NCI-H1792; first compound 500 µM): 0.047
relative viability (NCI-H2085; first compound 5 µM): 0.895
relative viability (NCI-H2085; first compound 15.81 µM): 0.785
relative viability (NCI-H2085; first compound 50 µM): 0.895
relative viability (NCI-H2085; first compound 158.11 µM): 0.856
relative viability (NCI-H2085; first compound 500 µM): 0.209
relative viability (NCI-H23; first compound 5 µM): 0.212
relative viability (NCI-H23; first compound 15.81 µM): 0.274
relative viability (NCI-H23; first compound 50 µM): 0.218
relative viability (NCI-H23; first compound 158.11 µM): 0.151
relative viability (NCI-H23; first compound 500 µM): 0.0026
relative viability (NCI-H2405; first compound 5 µM): 0.755
relative viability (NCI-H2405; first compound 15.81 µM): 0.63
relative viability (NCI-H2405; first compound 50 µM): 0.736
relative viability (NCI-H2405; first compound 158.11 µM): 0.557
relative viability (NCI-H2405; first compound 500 µM): 0.235
relative viability (NCI-H322M; first compound 5 µM): 0.547
relative viability (NCI-H322M; first compound 15.81 µM): 0.508
relative viability (NCI-H322M; first compound 50 µM): 0.606
relative viability (NCI-H322M; first compound 158.11 µM): 0.638
relative viability (NCI-H322M; first compound 500 µM): 0.269
relative viability (RERF-LC-KJ; first compound 5 µM): 0.98
relative viability (RERF-LC-KJ; first compound 15.81 µM): 0.917
relative viability (RERF-LC-KJ; first compound 50 µM): 1
relative viability (RERF-LC-KJ; first compound 158.11 µM): 0.94
relative viability (RERF-LC-KJ; first compound 500 µM): 0.921
